Test results as given in ChEMBL document CHEMBL1201862, “PubChem BioAssay data set” (2004).
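1) Cells in 96-well plates. 2) Compound, 48 h, 5 concentrations. 3) Linear interpolation between surrounding doses. 4) Unreached endpoint = highest concentration. GI50: concentration for 50% inhibition of growth.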 Calls of active or inactive are those of the source. Rule as the data show it: active = GI50 up to about 1.1 µM and inactive = higher.

Assays:
Experiment in all cases: NCI-60 cell line screen, 48 h
[1] = test system: NCI/ADR-RES
[2] = test system: SF-268
[3] = test system: A498
[4] = test system: HCT-116
[5] = test system: SK-MEL-28
[6] = test system: HL-60
[7] = test system: MDA-MB-435
[8] = test system: HOP-92
[9] = test system: EKVX
[10] = test system: HCT-15
[11] = test system: HCC 2998
[12] = test system: Malme-3M
[13] = test system: SF-539
[14] = test system: OVCAR-8
[15] = test system: NCI-H522
[16] = test system: PC-3
[17] = test system: NCI-H23
[18] = test system: NCI-H226
[19] = test system: CAKI-1
[20] = test system: M14

CC(=O)CCNc1ccc(-c2cc(-c3ccc(N(C)C)cc3)nc3ccc4ccccc4c23)cc1
GI50 [1]: 97.9 µM (inactive)
GI50 [2]: > 44.5 µM (inactive)
GI50 [3]: 43.8 µM (inactive)
GI50 [4]: 18.5 µM (inactive)
GI50 [5]: 34.8 µM (inactive)
GI50 [6]: 3.7 µM (inactive)
GI50 [7]: > 60.7 µM (inactive)
GI50 [8]: 79.3 µM (inactive)
GI50 [9]: > 51.5 µM (inactive)
GI50 [10]: 49.7 µM
GI50 [11]: > 100 µM (inactive)
GI50 [12]: > 67.8 µM (inactive)
GI50 [13]: > 53.7 µM (inactive)
GI50 [14]: > 100 µM (inactive)
GI50 [15]: > 100 µM (inactive)
GI50 [16]: 13.2 µM (inactive)
GI50 [17]: > 100 µM (inactive)
GI50 [18]: > 41.5 µM (inactive)
GI50 [19]: > 65.8 µM (inactive)
GI50 [20]: 32.4 µM (inactive)

Clc1ccccc1C(Nc1cnccn1)Nc1cnccn1
GI50 [1]: > 100 µM (inactive)
GI50 [2]: > 100 µM (inactive)
GI50 [3]: > 100 µM (inactive)
GI50 [4]: 98.2 µM (inactive)
GI50 [5]: > 100 µM (inactive)
GI50 [6]: 0.692 µM (active)
GI50 [7]: 8.59 µM (inactive)
GI50 [8]: > 100 µM (inactive)
GI50 [9]: > 100 µM (inactive)
GI50 [10]: 8.71 µM
GI50 [11]: > 100 µM (inactive)
GI50 [12]: > 100 µM (inactive)
GI50 [13]: > 100 µM (inactive)
GI50 [14]: > 100 µM (inactive)
GI50 [15]: > 100 µM (inactive)
GI50 [16]: > 100 µM (inactive)
GI50 [17]: > 100 µM (inactive)
GI50 [18]: > 100 µM (inactive)
GI50 [19]: > 100 µM (inactive)
GI50 [20]: 5.85 µM (inactive)

S=C(NCc1ccccc1)N/N=C/c1ccccn1
GI50 [1]: 1.88 µM (inactive)
GI50 [2]: 1.42 µM (inactive)
GI50 [3]: 3.87 µM (inactive)
GI50 [4]: 0.34 µM (active)
GI50 [5]: 5.62 µM (inactive)
GI50 [6]: 0.0302 µM (active)
GI50 [7]: 5.69 µM (inactive)
GI50 [8]: 2.21 µM (inactive)
GI50 [9]: 1.82 µM (inactive)
GI50 [10]: 1.26 µM
GI50 [11]: 6.31 µM (inactive)
GI50 [12]: 1.45 µM (inactive)
GI50 [13]: 4.6 µM (inactive)
GI50 [14]: 1.15 µM (inactive)
GI50 [15]: 0.982 µM (active)
GI50 [16]: 0.762 µM (active)
GI50 [17]: 3.56 µM (inactive)
GI50 [18]: 2.01 µM (inactive)
GI50 [19]: 0.335 µM (active)
GI50 [20]: 0.5 µM (active)

CN(C)CCc1c2c(nc3ccccc13)C(=O)c1cccnc1C2=O
GI50 [1]: 0.119 µM (active)
GI50 [2]: 0.238 µM (active)
GI50 [3]: 0.597 µM (active)
GI50 [4]: 0.0838 µM (active)
GI50 [5]: 0.492 µM (active)
GI50 [6]: 0.0486 µM (active)
GI50 [7]: 0.331 µM (active)
GI50 [8]: 1.49 µM (inactive)
GI50 [9]: 1.55 µM (inactive)
GI50 [10]: 0.0348 µM
GI50 [11]: 1.35 µM (inactive)
GI50 [12]: 0.49 µM (active)
GI50 [13]: 0.168 µM (active)
GI50 [14]: 0.184 µM (active)
GI50 [15]: 0.175 µM (active)
GI50 [16]: 0.313 µM (active)
GI50 [17]: 0.322 µM (active)
GI50 [18]: 0.0902 µM (active)
GI50 [19]: 0.582 µM (active)
GI50 [20]: 0.102 µM (active)

Cc1sc2nc(-c3ccc(Cl)c([N+](=O)[O-])c3)c(/C=N/NC(=N)N)n2c1C
GI50 [1]: 2.04 µM (inactive)
GI50 [2]: 1.85 µM (inactive)
GI50 [3]: 1.66 µM (inactive)
GI50 [5]: 0.973 µM (active)
GI50 [6]: 1.71 µM (inactive)
GI50 [7]: 1.51 µM (inactive)
GI50 [8]: 1.4 µM (inactive)
GI50 [9]: 1.69 µM (inactive)
GI50 [10]: 1.37 µM
GI50 [11]: 1.1 µM (active)
GI50 [12]: 2 µM (inactive)
GI50 [13]: 1.64 µM (inactive)
GI50 [14]: 0.824 µM (active)
GI50 [15]: 1.71 µM (inactive)
GI50 [16]: 1.52 µM (inactive)
GI50 [17]: 1.73 µM (inactive)
GI50 [18]: 1.61 µM (inactive)
GI50 [19]: 1.62 µM (inactive)
GI50 [20]: 1.53 µM (inactive)

COC12CCCN1c1ccn(Cc3ccccc3)c(=O)c1C2=O (centres undefined)
GI50 [1]: > 100 µM (inactive)
GI50 [2]: > 100 µM (inactive)
GI50 [3]: > 100 µM (inactive)
GI50 [4]: > 100 µM (inactive)
GI50 [5]: > 100 µM (inactive)
GI50 [6]: 66.1 µM (inactive)
GI50 [7]: > 100 µM (inactive)
GI50 [8]: > 100 µM (inactive)
GI50 [9]: > 100 µM (inactive)
GI50 [10]: > 100 µM
GI50 [11]: > 100 µM (inactive)
GI50 [12]: > 100 µM (inactive)
GI50 [13]: > 100 µM (inactive)
GI50 [14]: > 100 µM (inactive)
GI50 [15]: > 100 µM (inactive)
GI50 [16]: > 100 µM (inactive)
GI50 [17]: > 100 µM (inactive)
GI50 [18]: > 100 µM (inactive)
GI50 [19]: > 100 µM (inactive)
GI50 [20]: > 100 µM (inactive)

CC(C)[C@@H]1CC[C@@H](C)C[C@H]1OC(=O)/C=C1\C(C(=O)O[C@@H]2C[C@H](C)CC[C@H]2C(C)C)[C@H]2C=C[C@@H]1O2 (some centres undefined)
GI50 [1]: > 100 µM (inactive)
GI50 [2]: 76.4 µM (inactive)
GI50 [3]: > 100 µM (inactive)
GI50 [4]: 49.9 µM (inactive)
GI50 [5]: > 100 µM (inactive)
GI50 [6]: 22.9 µM (inactive)
GI50 [7]: 59 µM (inactive)
GI50 [8]: 63 µM (inactive)
GI50 [9]: 63.4 µM (inactive)
GI50 [10]: 92.3 µM
GI50 [11]: 29.1 µM (inactive)
GI50 [12]: > 100 µM (inactive)
GI50 [13]: > 100 µM (inactive)
GI50 [14]: 57.7 µM (inactive)
GI50 [15]: 22.5 µM (inactive)
GI50 [16]: 37.3 µM (inactive)
GI50 [17]: 36.7 µM (inactive)
GI50 [18]: 38.3 µM (inactive)
GI50 [19]: > 100 µM (inactive)
GI50 [20]: 89.5 µM (inactive)
